Values quoted from earlier work, collected in patent publication EP4628546A1, “CYANINE DIMERS FOR PHOTOTHERMAL TREATMENT OF CANCER GUIDED BY FLUORESCENCE/PHOTOACOUSTIC IMAGING” (Centre National de la Recherche Scientifique, priority 2024, dated 2025).

Details: IR 780 in EtOH, reference value

Compound: CCCN1/C(=C/C=C2\CCCC(/C=C/C3=[N+](CCC)c4ccccc4C3(C)C)=C2Cl)C(C)(C)c2ccccc21.[I-] [IR 780]
- Φfluo,ref: 0.08
